Here are results for ten molecules from PMC4747407 (Oncotarget, 2015).

“Also recorded” adds a separate entry of the source.

Data set [1] has as its system Wnt1 (int-1) mammary tumors. Briefly: Wnt1 subcutaneous mammary tumor model. As to conditions: E6201 40 mg/kg i.v. Q4Dx3; for tumor growth, single agent: E7449 100 mg/kg once daily, Wnt-C59 10 mg/kg once daily. As to the method: (§1) All studies were performed according to IACUC approved protocols. The general health of mice was monitored daily. Tumor volume was determined by caliper measurements (mm), using the formula (l x w^2)/2 = mm^3, where l and w refer to the larger and smaller perpendicular dimensions collected at each measurement. Tumor dimensions were recorded twice per week starting when tumors reached an approximate size of 100 to 150 mm^3. Body weights were recorded twice per week and relative body weight was calculated as follows: Relative body weight = (body weight on day of measurement/body weight on first day of treatment).
Tumor pieces cut to approximately 2 mm^3 in size were injected subcutaneously in female nude mice. Treatment was initiated approximately 9–10 days post-implantation of mice.

For data set [2] the following is noted: cited from earlier work.
Data set [3] has as its system B16-F10 mouse melanoma isografts. Briefly: B16-F10 mouse melanoma isograft model, combination with TMZ. The data set is classed as in vivo. As to conditions: E7449 100 mg/kg or TMZ 50 mg/kg, oral once daily. As to the method:
All studies were performed according to IACUC approved protocols. The general health of mice was monitored daily.
TMZ combination in B16-F10 isograft model: female C57BL/6 mice were inoculated subcutaneously with B16-F10 cells (2 × 10^5). Following randomization by body weight, drug treatment was initiated 1 day post-inoculation. […] TMZ was administered daily on days 1 to 5 at 50 mg/kg as a single agent or in combination. […] The control group was treated with vehicle (0.5% methyl cellulose in water). E7449 or vehicle was administered first and when dosing of all animals was complete TMZ was administered to animals receiving the combination.

In another data set the test system is Wnt1 model tumors. The data set is described as follows: Gene expression of Wnt-related genes in Wnt1 model tumors (mouse TLDA). The data set is classed as in vivo. As to conditions: 7 days of drug treatment. As to the method: (§2) Gene expression profiling was performed using a custom designed TaqMan® low density array (TLDA). Total RNA was isolated from cell lines using RNeasy Mini Kit (Qiagen) and from xenograft tumor FFPE tissue using RecoverAll Total Nucleic Acid Isolation (Ambion). Human and mouse, real-time qPCR TLDAs (384-well micro fluidic card) were designed with genes selected based on their involvement in Wnt signalling (see supplementary Tables 2 and 3 for lists of genes on TLDAs). cDNA was generated from total RNA using High Capacity cDNA Reverse Transcription kit (Life Technologies) or SuperScript® VILO™ Master Mix (Life Technologies). 100 ng cDNA was combined with TaqMan® Gene Expression Master Mix (Life Technologies) for the cell lines and TaqMan® Advanced FAST Master Mix (Life Technologies) for the xenograft tissue for each port (in duplicate). TLDAs were run based on recommended cycling times for each master mix. Ct values were calculated and imported into GeneData Analyst for further analysis. To calculate the ΔCts, gene expression was normalized to several housekeeping genes. Relative fold change was calculated by comparison to the DMSO or vehicle-treated controls for each sample. A student's t-test was used to calculate P-values and hierarchical clustering used Manhattan distance and complete linkage plotting of selected significant genes to generate heat maps.

The subject of data set [4] is SW480 cells. Briefly: Western blot of Wnt/β-catenin pathway proteins in SW480 cells. As to conditions: 10 μmol/L, 24 h. The format is cell-based, human. As to the method:
(§3) SW480, DLD-1 (Wnt-dependent) or RKO (Wnt-independent) cells were plated in 6-well plates and incubated overnight. Cells were treated with E7449, olaparib or XAV939 and incubated for various time periods prior to processing by SDS PAGE and western blot analysis. […] Following binding of appropriate secondary antibodies labeled with IRDye® (LI-COR), image analysis was performed with Image Studio software for the LI-COR Odyssey system (version 2.1.10).

Data set [5] relates to SW480 cells. The data set is described as follows: Gene expression profiling of Wnt-related genes (TLDA qPCR) in SW480 cells. The data set is classed as cell-based, human. As to conditions: 3 μmol/L (XAV939 also 30 μmol/L), 72 h. As to the method:
as §2

Another data set has as its system DLD-1 cells. The data set is described as follows: Western blot of Wnt/β-catenin pathway proteins in DLD-1 cells. As to conditions: 24 h. The data set is classed as cell-based, human. As to the method: as §3
For orientation: A western blot detects proteins with antibodies after separation by electrophoresis.

The test system of data set [6] is MX-1 human breast cancer xenografts. The format is in vivo. As to conditions: E7449 100 mg/kg oral once daily; carboplatin single i.v. dose 60 mg/kg. As to the method: as §1
Carboplatin combination in MX-1 orthotopic xenografts: female nude mice were implanted with MX-1 cells (0.5 × 10^6) in the thoracic mammary fat pad. Treatment started on day 3 when the average tumor size was approximately 50 mm^3. Carboplatin was administered as a single intravenous dose at 60 mg/kg on day 3 or 4.

The target in another data set is tankyrase. As to conditions: read-out: reported IC50 values for tankyrase inhibition; various assays; cited from earlier work.
Another data set has as its system wild type DT40 cells. Briefly: cells. As to conditions: DT40, 48 h, read-out: IC50, cell proliferation, wild type DT40 cells.
For another data set, the system named is TNKS1/2. Also on record: method as in Wahlberg et al 48. As to conditions: ref Wahlberg et al 48; cited from earlier work.
The subject of data set [7] is DNA repair mutant DT40 cell lines. Briefly: Proliferation assay in panel of isogenic DNA repair mutant DT40 cell lines (XTT). The data set is classed as cell-based, avian. As to conditions: versus wild type DT40. In general terms: Formazan colour is commonly taken as a measure of viable cells.
The next data set has as its system TNKS1. As to conditions: read-out: reported IC50, TNKS1; cited from earlier work.
A further data set has as its system PARP2. As to conditions: read-out: reported IC50, PARP2; cited from earlier work.

Experimental for wild type DT40 cells: Proliferation assays were performed in a panel of 32 isogenic DT40 cell lines, in which each line was deficient in a distinct DNA repair gene [31]. Cells were seeded and incubated with test compound at various concentrations for 2–3 days (~ 8 cell cycles). […] Each experiment was conducted in duplicate and a minimum of 3 separate experiments were performed. […] For proliferation assays cells were plated at low density in 96 well plates. […] Cell growth was assessed using the CellTiter-Glo® cell viability assay (Promega, Cat# G7573). Each experiment was conducted in duplicate and a minimum of 3 separate experiments were performed.

`CCNc1cc(O)c2c(c1)/C=C/C[C@H](O)[C@H](O)C(=O)/C=C\[C@@H](C)[C@H](C)OC2=O` [E6201, reference compound]: in data set [1] (recovered post-treatment), the decreased body weight is below 10%. Further, the “tumor growth, single agent” value in data set [1] is recorded as “No antitumor activity”.

`CS(=O)(=O)c1ccc(-c2nnc(/C=C/c3nnc(-c4ccc(C#N)cc4)o3)n2-c2ccccc2Cl)nc1` [G007-LK]: the “single agent antitumor activity” value in data set [2] is “inhibit tumor growth as a single agent in certain models”. In addition, the therapeutic window entry in data set [2] (in vivo) was “very narrow therapeutic window because of intestinal toxicity”.

`Cn1nnc2c(C(N)=O)ncn2c1=O` [TMZ, temozolomide, reference compound]: in data set [3], the “growth of subcutaneous tumors, single agent” value is on record as “moderately inhibited”.

Take `Cc1cc(-c2ccc(CC(=O)Nc3ccc(-c4cccnc4)cc3)cc2)ccn1` [Wnt-C59, reference compound]: the “expression of Wnt-related genes CAR2, FZD9, LEF1, VIL1 in tumors” value with Wnt1 model tumors is given as “significant alteration”. Besides, the “tumor growth, single agent” value in data set [1] is reported as “significant antitumor activity; also recorded: significantly inhibited tumor growth”.

`Oc1nc(-c2ccc(C(F)(F)F)cc2)nc2c1CSCC2` [XAV939]: in the data set with SW480 cells [4], the “Cyclin D1 protein levels” value is on record as “modest decrease”, the axin2 protein level result was “Increased axin2”, the “reduction of active (non-phosphorylated) β-catenin level” value is recorded as ~ 90% and the “reduction of total β-catenin level” value is around 75%. For the same molecule, the “expression of 6 E7449-responsive genes (NOS3, LGR5, LEF1, NKD1, CYR61, MMP7)” value with SW480 cells [5] is “altered expression of these 6 genes in the same direction”. In addition, the “effect on levels of β-catenin” value in the data set on DLD-1 cells is “robust effect on levels of β-catenin was not observed”.

Consider `N.N.O=C([O-])C1(C(=O)[O-])CCC1.[Pt+2]` [carboplatin, reference compound], for which the “antitumor activity, single agent” value in data set [6] is on record as “modest, but statistically significant versus vehicle; also recorded: only modest antitumor activity”.

`NC(=O)c1cccc2cn(-c3ccc([C@@H]4CCCNC4)cc3)nc12` [niraparib]: the IC50 at tankyrase is 600 nM.

On to `O=C(c1cc(Cc2n[nH]c(=O)c3ccccc23)ccc1F)N1CCN(C(=O)C2CC2)CC1` [olaparib], for which, in the data set on SW480 cells [4], the “Cyclin D1 protein levels” value is reported as “unaffected”. The axin2 protein level entry in the data set on SW480 cells [4] is listed as “remained at basal levels”. In addition, the β-catenin protein levels result with SW480 cells [4] is “remained unchanged”. The IC50 in the data set with wild type DT40 cells was 2100 nM; in the data set with TNKS1, […]; in the data set with PARP2, […]; at tankyrase, […]. Also, the “binding to TNKS1/2 catalytic domain” value in the data set with TNKS1/2 was “no significant binding”. Besides, in data set [7], the “sensitivity of DT40 cells lacking PARP expression” value is recorded as “A similar observation”. In the data set with SW480 cells [5], the “expression of 6 E7449-responsive genes (NOS3, LGR5, LEF1, NKD1, CYR61, MMP7)” value is given as “no effect or altered expression in the opposite direction”.

For `CNCc1ccc(-c2[nH]c3cc(F)cc4c3c2CCNC4=O)cc1` [rucaparib], the “binding to TNKS1/2 catalytic domain” value in the data set with TNKS1/2 was “binding to the catalytic domain of multiple PARP family members including tankyrases”.

In the case of `C[C@]1(c2nc3c(C(N)=O)cccc3[nH]2)CCCN1` [veliparib], the “binding to TNKS1/2 catalytic domain” value with TNKS1/2 is reported as “no significant binding”. Also, the IC50 on tankyrase was […].
